The values below come from patent US20030207791A1, “Materials and methods relating to the treatment of leukaemias” (priority 2000, published 2003).

What all share (type): cell-based
For one assay, the system named is ΔCC-PML-RAR. Description: RA sensitivity of transcriptional repression, RARE-G5-TATA reporter. The note with it: RA 1 nM-10 μM, repression by ΔCC-PML-RAR.
In assay [1] the test system is murine hematopoietic progenitors (lin-). Description: In vitro differentiation of murine hematopoietic progenitor cells transduced with retroviral constructs. The note with it: control cells, RA 3 nM or 1 μM; maximum; as described (Purton et al., 1999). The procedure:
FIG. 5. A heterologous oligomerization domain activates the transforming potential of RAR. (A-B) p53-RAR form oligomers. (A) Nuclear extracts from COS-1 cells transfected with expression vectors for p53-RAR or RAR were incubated with tritiated RA (10 nM), fractionated and analysed as described in FIG. 3A. Note that the low MW peak of RA-binding capacity (coinciding with RAR) in p53-RAR cells derives from expression of wild type RAR, starting from its own ATG-conserved in the p53-RAR expression vector (see below)-. (B) Fractions from gel filtration of in vitro translated, ^35-S labelled p53-RAR were analysed by SDS-PAGE, followed by autoradiography. Note that two products are generated in the reaction: full-length p53-RAR, fractionating in oligomeric complexes, and RAR, starting from the internal ATG site of RAR and fractionating as a monomer. […] After sorting, cells were either plated in differentiation medium in the absence or in the presence of RA (3 nM or 1 μM) (C), or analysed by Western blot (D). […]
The capacity of p53-RAR to block differentiation was evaluated using primary hematopoietic precursors purified from murine bone marrow on the basis of the absence of surface differentiation antigens (lin-see methods). […] After 8-10 days, colonies were pooled and analysed for the expression of myeloid differentiation markers (Mac-1 and GR-1). […]

Assay [2] relates to PML-RAR expressing murine primary haemopoietic precursors. The assay can be described thus: RA relief of differentiation block in transduced murine primary haemopoietic precursors. The settings on record: RA 3 nM or 1 μM, block by PML-RAR. The source says: (§1) FIG. 5. […] (C-D) Effects of RAR chimeric proteins on differentiation of murine hematopoietic progenitors. Lin-cells were transduced with the indicated retroviral vectors and then sorted by FACS on the basis of their GFP positivity. In the case of ΔCC-PML-RAR, GFP+ cells were sorted in GFP^high or GFP^low expressors.
(§2) Murine hematopoietic progenitors were purified from the bone marrow of 12 weeks old BALB-C mice using commercially available kits (StemCell Tecnology). Cells were selected on the basis of the absence of lineage differentiation markers (lin−). Purified cells were pre-stimulated for two days in medium containing IL-3 (20 ng/ml), IL-6 (20 ng/ml) and stem cell factor (SCF, 100 ng/ml) and then attached to Retronectin (Takara Shuzo)-coated multiwell plates. Cells were incubated for 48 hours with the filtered supernatant from ecotropic packaging cells (Phoenix) transiently transfected with the indicated retroviral constructs (Grignani et al., 1998).

The subject of assay [3] is CC-RAR expressing murine primary haemopoietic precursors. Described as above. The settings on record: RA 3 nM or 1 μM, block by CC-RAR.
Excerpt: as §1, §2

Excerpt for ΔCC-PML-RAR: Light units were normalized to expression of a co-transfected β-galactosidase expression plasmid.

As for `CC1=C(/C=C/C(C)=C/C=C/C(C)=C/C(=O)O)C(C)(C)CCC1` [RA, retinoic acid], the “RA concentration that reverted transcriptional repression” value in the assay with ΔCC-PML-RAR is recorded as “up to 100 nM”. The “reduction in the number of Mac1+ cells” value in assay [1] is reported as 20-30%. The “RA concentration that relieved the differentiation block” value in assay [2] and in assay [3] was 1 µM throughout.
